Counter-ions that a name gives are not always drawn.
Experiments:
SIRT2 = biological target: T1, SIRT2 (Homo sapiens, UniProt Q8IXJ6); assay: Fluor-de-Lys biochemical sirtuin deacetylation assay, SIRT2; details: 10 μM
T1 construct: recombinant active enzymes SIRT1, SIRT2, and the catalytically active fragment of SIRT3
T1 sequence (Q8IXJ6 1-389): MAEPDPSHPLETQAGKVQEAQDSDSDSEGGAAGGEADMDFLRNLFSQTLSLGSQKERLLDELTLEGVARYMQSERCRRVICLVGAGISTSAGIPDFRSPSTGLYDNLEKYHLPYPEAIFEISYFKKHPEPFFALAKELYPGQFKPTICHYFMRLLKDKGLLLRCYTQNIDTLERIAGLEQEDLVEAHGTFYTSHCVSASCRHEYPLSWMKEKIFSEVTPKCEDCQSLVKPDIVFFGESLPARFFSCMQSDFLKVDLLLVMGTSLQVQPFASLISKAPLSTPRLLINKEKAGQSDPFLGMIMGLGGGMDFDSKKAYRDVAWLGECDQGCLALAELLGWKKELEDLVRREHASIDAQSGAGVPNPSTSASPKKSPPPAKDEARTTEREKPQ

| Compound | melting point [°C] | inhibition at 10 µM (SIRT2) [%] |
| --- | --- | --- |
| CN(C(=O)c1cccc(S(=O)(=O)N(C)c2ccc(Br)cc2)c1)c1ccc(Cl)cc1F [Compound 203p, 3-(N-(4-bromophenyl)-N-methylsulfamoyl)-N-(4-chloro-2-fluorophenyl)-N-methylbenzamide] | 127 to 128 |  |
| CN(C(=O)c1cccc(S(=O)(=O)N(C)c2ccc(Br)cc2)c1)c1ccc(Br)cc1F [Compound 203s, N-(4-bromo-2-fluorophenyl)-3-(N-(4-bromophenyl)-N-methylsulfamoyl)-N-methylbenzamide] | 136 to 137 |  |
| O=C(Nc1ccc(Cl)cc1)c1cncc(CN(Cc2ccc(F)c(F)c2)C2CC2)c1 [Compound 225t, N-(4-chlorophenyl)-5-((cyclopropyl(3,4-difluorobenzyl)amino)methyl)nicotinamide hydrochloride] |  | 9 |
| O=C(Nc1ccc(C(F)(F)F)cc1)c1cncc(CN(Cc2ccc(F)c(F)c2)C2CC2)c1 [Compound 225v, 5-((cyclopropyl(3,4-difluorobenzyl)amino)methyl)-N-(4-(trifluoromethyl)phenyl)-nicotinamide hydrochloride] |  | 3 |
| CC(=O)c1ccc(CN(Cc2cccc(C(=O)Nc3ccc(C#N)cc3)c2)C2CC2)cc1 [Compound 225x, 3-(((4-acetylbenzyl)(cyclopropyl)amino)methyl)-N-(4-cyanophenyl)benzamide hydrochloride] |  | 24 |
| CN(c1ccc(Cl)cc1)S(=O)(=O)c1cccc(NC(=O)Nc2ccc(Cl)cc2)c1 [Compound 233a, N-(4-chlorophenyl)-3-(3-(4-chlorophenyl)ureido)-N-methylbenzenesulfonamide] |  | 0 |
| N#Cc1ccc(/N=C(/N)c2cccc(OCc3cccc(F)c3F)c2)cc1 [Compound 234a, N′-(4-cyanophenyl)-3-((2,3-difluorobenzyl)oxy)benzimidamide hydrochloride] |  | 12 |
| N#Cc1ccc(COc2cccc(/C(N)=N\c3ccc(C#N)cc3)c2)cc1 [Compound 234b, 3-((4-cyanobenzyl)oxy)-N′-(4-cyanophenyl)benzimidamide hydrochloride] |  | 12 |
| C[C@@H](Oc1cccc(/C(N)=N\c2ccc(C#N)cc2)c1)c1ccc(C#N)cc1 [Compound 234c, (R)—N′-(4-cyanophenyl)-3-(1-(4-cyanophenyl)ethoxy)benzimidamide hydrochloride] |  | 39 |
| N/C(=N/c1cccc([N+](=O)[O-])c1)c1cccc(S(=O)(=O)N2CCCCCC2)c1 [Compound 234e, 3-(azepan-1-ylsulfonyl)-N′-(3-nitrophenyl)benzimidamide] |  | 27 |

Results, then the molecule that gave them:

| melting point [°C] | inhibition at 10 µM (SIRT2) [%] | Compound |
| --- | --- | --- |
| 158 to 159 |  | CN(c1ccc(Cl)cc1)S(=O)(=O)c1cccc(C(=O)Nc2ccc(C#N)cc2F)c1 [Compound 203Ab, 3-(N-(4-chlorophenyl)-N-methylsulfamoyl)-N-(4-cyano-2-fluorophenyl)benzamide] |
| 195 to 197 |  | CN(c1ccc(Cl)cc1)S(=O)(=O)c1cc(C(=O)Nc2ccc(C#N)cc2)ccn1 [Compound 203Am, 2-(N-(4-chlorophenyl)-N-methylsulfamoyl)-N-(4-cyanophenyl)isonicotinamide] |
|  | 5 | CC(=O)c1ccc(NC(=O)c2cncc(CN(Cc3ccc(F)c(F)c3)C3CC3)c2)cc1 [Compound 225u, N-(4-acetylphenyl)-5-((cyclopropyl(3,4-difluorobenzyl)amino)methyl)nicotinamide hydrochloride] |
|  | 20 | N#Cc1cccc(NC(=O)c2cncc(CN(Cc3ccc(F)c(F)c3)C3CC3)c2)c1 [Compound 225w, N-(3-cyanophenyl)-5-((cyclopropyl(3,4-difluorobenzyl)amino)methyl)nicotinamide hydrochloride] |
|  | 12 | COc1ccc(N(C)S(=O)(=O)c2cccc(/C(N)=N\c3ccc(C#N)cc3)c2)cc1 [Compound 234d, N′-(4-cyanophenyl)-3-(N-(4-methoxyphenyl)-N-methylsulfamoyl)benzimidamide hydrochloride] |

Source: patent US9890117B2, “Benzamide compounds and related methods of use” (Northwestern University, priority 2012, dated 2018)
